For the assay, the system named is Plasmodium berghei. Kind of assay: Luciferase/luciferin-expressing antifolate-resistant parasites were used to infect a culture of HepG2 cells that were pre-incubated with compounds. Infected hepatocytes emit light due to the luciferase reaction. Assay results are presented as the percent inhibition of light emission compared to control. […]. In kind it is functional. The following applies: sporozoite; for IC90: read-out: LUCIFERASE INFECTION ASSAY - IC90.

Setting [1] is: read-out: LUCIFERASE INFECTION ASSAY - IC50.

From ChEMBL document CHEMBL4483862, “Open-source discovery of chemical leads for next-generation chemoprotective antimalarials” (2018) come the findings set out here.

A value given as a limit tells only on which side of the number the result lay.

The term IC50 denotes the concentration that gives 50% inhibition. The IC90 is the concentration needed for an effect of 90%. As for `CC(C)Cc1nc2oc3c(NCC4CCCO4)ncnc3c2c2c1CCC2` (stereo not given), the 90% effect concentration (IC90) was found to be 4.52 µM. Besides, for the setting “PBLUC_HILL_SLOPE 12.2, PBLUC_R_SQUARED 0.0912, read-out: LUCIFERASE INFECTION ASSAY - IC50”, the IC50 amounted to 3.77 µM.
As for `CCC(C)NC(=O)c1c(NC(=O)c2cccc(OC)c2)nc2ccc(C)cn12` (stereo not given), the 90% effect concentration (IC90) is greater than 8.67 µM. In addition, the IC50 (FFLUC_HILL_SLOPE 19.6, FFLUC_R_SQUARED 0.348, HEPG2TOX_HILL_SLOPE 6.15, HEPG2TOX_R_SQUARED 0.729, PBLUC_HILL_SLOPE 3.4, PBLUC_R_SQUARED 0.659, read-out: LUCIFERASE INFECTION ASSAY - IC50) is 5.09 µM.
Consider `Cc1nc(C(=O)NNC(=O)c2c(-c3c(Cl)cccc3Cl)noc2C)cs1`, for which the 90% effect concentration (IC90) was determined as 3.12 µM. Also, the 50% inhibitory concentration (IC50) (HEPG2TOX_HILL_SLOPE 1.49, HEPG2TOX_R_SQUARED 0.872, PBLUC_HILL_SLOPE 12.3, PBLUC_R_SQUARED 0.357, read-out: LUCIFERASE INFECTION ASSAY - IC50) came to 2.61 µM.
Take `CCC1c2ccsc2CCN1C(=O)C1CCN(S(=O)(=O)c2ccc(Cl)c([N+](=O)[O-])c2)CC1` (stereo not given): the concentration for an effect of 90% (IC90) was greater than 10 µM. The IC50 under setting [1] is greater than 10 µM.
For the molecule `COc1ccc(Nc2cc(C)nc(Nc3ccc(OC)cc3)n2)cc1`, the 90% effect concentration (IC90) was 3.93 µM. Moreover, where the note is “HEPG2TOX_HILL_SLOPE 1.69, HEPG2TOX_R_SQUARED 0.922, PBLUC_HILL_SLOPE 13, PBLUC_R_SQUARED 0.323, read-out: LUCIFERASE INFECTION ASSAY - IC50”, the IC50 stood at 3.32 µM.
Regarding `O=C(NCCN1CCc2ccccc2C1)c1cc2ccccc2cc1O`, the IC90 worked out at 3.77 µM. In addition, the half-inhibitory concentration (IC50) (PBLUC_HILL_SLOPE 16.8, PBLUC_R_SQUARED 0.317, read-out: LUCIFERASE INFECTION ASSAY - IC50) is 3.31 µM.
In the case of `O=C(CCSc1n[nH]c(=O)n1C1CC1)Nc1ccccc1`, the IC90 was greater than 10 µM. Also, under setting [1], the IC50 is greater than 10 µM.
For `CN(C)C(=O)c1ccc(-c2ccnc3n[nH]c(-c4ccc(Cl)cc4)c23)cc1`, the IC90 came out at 7.75 µM. Also, the concentration for half-maximal inhibition (IC50) (HEPG2TOX_HILL_SLOPE 12.3, HEPG2TOX_R_SQUARED 0.411, PBLUC_HILL_SLOPE 3.78, PBLUC_R_SQUARED 0.252, read-out: LUCIFERASE INFECTION ASSAY - IC50) was 4.33 µM.
With `CC1CCc2nc3ccccc3c(C(=O)OCCOc3ccccc3Cl)c2C1` (stereo not given), the concentration for an effect of 90% (IC90) was greater than 10 µM. Moreover, the IC50 under setting [1] is greater than 10 µM.
As for `COc1ccc(-n2nc(C)c3c(O)c4c(nc32)CCCC4)cc1`, the IC90 was greater than 10.7 µM. The 50% inhibitory concentration (IC50) (HEPG2TOX_HILL_SLOPE 2.37, HEPG2TOX_R_SQUARED 0.552, read-out: LUCIFERASE INFECTION ASSAY - IC50) was greater than 10.7 µM.
Turning to `COc1ccc(-c2cnn3ccc(Nc4ccc(OC)nc4)nc23)c(OC)c1`, the IC90 was found to be 3.63 µM. Also, the half-inhibitory concentration (IC50) (HEPG2TOX_HILL_SLOPE 6.09, HEPG2TOX_R_SQUARED 0.857, PBLUC_HILL_SLOPE 12.3, PBLUC_R_SQUARED 0.558, read-out: LUCIFERASE INFECTION ASSAY - IC50) worked out at 3.03 µM.
With `COc1ccc(N2C(=O)c3ccccc3C(C=NNC(=O)c3sc4ccccc4c3Cl)C2=O)cc1OC` (stereo not given), the IC90 is greater than 10 µM. In addition, the IC50 (PBLUC_HILL_SLOPE 1.6, PBLUC_R_SQUARED 0.564, read-out: LUCIFERASE INFECTION ASSAY - IC50) came to 3.85 µM.
On to `Cc1ccc(NS(=O)(=O)c2ccc(C(=O)Nc3ncccc3O)cc2)cc1`, for which the IC90 was determined as 0.462 µM. In addition, under “FFLUC_HILL_SLOPE 0.564, FFLUC_R_SQUARED 0.118, HEPG2TOX_HILL_SLOPE 3.99, HEPG2TOX_R_SQUARED 0.784, PBLUC_HILL_SLOPE 9.26, PBLUC_R_SQUARED 0.767, read-out: LUCIFERASE INFECTION ASSAY - IC50”, the half-inhibitory concentration (IC50) was found to be 0.364 µM.
For the molecule `COc1ccc(Nc2nnc(SCc3cn4c(C)cccc4n3)s2)cc1`, the concentration for an effect of 90% (IC90) stood at 3.76 µM. Besides, the IC50 (HEPG2TOX_HILL_SLOPE 1.62, HEPG2TOX_R_SQUARED 0.963, PBLUC_HILL_SLOPE 37.7, PBLUC_R_SQUARED 0.0792, read-out: LUCIFERASE INFECTION ASSAY - IC50) is 3.55 µM.
Consider `O=[N+]([O-])c1ccccc1Sc1sc2ncnc(N/N=C/c3ccc(Cl)cc3Cl)c2c1-c1ccccc1`, for which the IC90 is greater than 10 µM. Moreover, the IC50 (FFLUC_HILL_SLOPE 17, FFLUC_R_SQUARED 0.5, read-out: LUCIFERASE INFECTION ASSAY - IC50) is greater than 10 µM.
Turning to `Cc1cc(/C=N/Nc2ccc(Cl)nn2)c(C)n1-c1ccccc1Cl`, the concentration for an effect of 90% (IC90) amounted to 9.4 µM. Moreover, where the note is “FFLUC_HILL_SLOPE 16.1, FFLUC_R_SQUARED 0.664, PBLUC_HILL_SLOPE 12.5, PBLUC_R_SQUARED 0.559, read-out: LUCIFERASE INFECTION ASSAY - IC50”, the IC50 worked out at 7.88 µM.
Take `O=C(OCC(=O)N1N=C(c2ccc(Cl)cc2)CC1c1ccco1)c1[nH]nc2ccccc12` (stereo not given): the IC90 was greater than 10 µM. Further, under setting [1], the IC50 is greater than 10 µM.
Consider `Cc1ccc(C(C#N)c2ccc(NN)nn2)cc1` (stereo not given), for which the 90% effect concentration (IC90) was greater than 13.8 µM. Further, the half-maximal inhibitory concentration (IC50) (FFLUC_HILL_SLOPE 3.94, FFLUC_R_SQUARED 0.836, read-out: LUCIFERASE INFECTION ASSAY - IC50) is greater than 13.8 µM.
In the case of `Cc1ccc(S(=O)(=O)Oc2c(C(C)C)cc(Nc3cc(C)ccc3C)cc2C(C)C)cc1`, the concentration for an effect of 90% (IC90) was greater than 10 µM. In addition, the half-inhibitory concentration (IC50) (HEPG2TOX_HILL_SLOPE 0.156, HEPG2TOX_R_SQUARED 0.126, PBLUC_HILL_SLOPE 13.1, PBLUC_R_SQUARED 0.436, read-out: LUCIFERASE INFECTION ASSAY - IC50) worked out at 9 µM.
On to `Cc1ccccc1Nc1nc(N)nc(CSc2nc(=O)c3c(-c4cccs4)csc3[nH]2)n1`, for which the 90% effect concentration (IC90) was greater than 10 µM. Under setting [1], the concentration for half-maximal inhibition (IC50) is greater than 10 µM.
As to `C/C(Cn1nnc(-c2ccc(C(F)(F)F)cc2)n1)=N\NC(N)=S`, the IC90 turned out to be 3.45 µM. Moreover, under “HEPG2TOX_HILL_SLOPE 10.9, HEPG2TOX_R_SQUARED 0.527, PBLUC_HILL_SLOPE 12.4, PBLUC_R_SQUARED 0.37, read-out: LUCIFERASE INFECTION ASSAY - IC50”, the IC50 was found to be 2.89 µM.
Consider `CC(C(=O)NC(C)(C)C)N1CCN(CC(=O)Nc2ccc(F)cc2)CC1` (stereo not given), for which the IC90 was greater than 10 µM. Further, the IC50 under setting [1] was greater than 10 µM.
Take `CC(C)=CC(=O)Nc1scc(-c2ccccc2)c1C(=O)OCC(=O)N(CCC#N)c1cc(C)cc(C)c1`: the IC90 was greater than 10 µM. The IC50 under setting [1] is greater than 10 µM.
On to `COc1ccc(-c2cnc3cnc(-c4cc(OC)cc(OC)c4)cn23)cc1`, for which the 90% effect concentration (IC90) was found to be 3.63 µM. Also, the IC50 (HEPG2TOX_HILL_SLOPE 2.43, HEPG2TOX_R_SQUARED 0.949, PBLUC_HILL_SLOPE 13, PBLUC_R_SQUARED 0.663, read-out: LUCIFERASE INFECTION ASSAY - IC50) stood at 3.06 µM.
Consider `Cc1cc(C(=O)COc2ccc(C(N)=O)cc2)c(C)n1-c1ccc2c(c1)OCO2`, for which the IC90 was 5.43 µM. The IC50 (HEPG2TOX_HILL_SLOPE 1.28, HEPG2TOX_R_SQUARED 0.792, PBLUC_HILL_SLOPE 4.73, PBLUC_R_SQUARED 0.266, read-out: LUCIFERASE INFECTION ASSAY - IC50) was determined as 3.41 µM.
As to `CC(C)(Oc1ccc(C#N)cc1)C(=O)O`, the IC90 was greater than 16.1 µM. Further, the half-inhibitory concentration (IC50) under setting [1] is greater than 16.1 µM.
On to `Cc1noc(C)c1COc1cccc(C(=O)Nc2cccc(S(=O)(=O)Nc3cccc(C(F)(F)F)c3)c2)c1`, for which the 90% effect concentration (IC90) is greater than 10 µM. For the same molecule, the IC50 (FFLUC_HILL_SLOPE 1.54, FFLUC_R_SQUARED 0.286, HEPG2TOX_HILL_SLOPE 4.14, HEPG2TOX_R_SQUARED 0.909, PBLUC_HILL_SLOPE 1.42, PBLUC_R_SQUARED 0.59, read-out: LUCIFERASE INFECTION ASSAY - IC50) was determined as 6.04 µM.
For `Cc1nn(-c2ccccc2)c(C)c1C(=O)NCc1cccc(NC(=O)C(C)C)c1`, the 90% effect concentration (IC90) was 7.7 µM. The IC50 (PBLUC_HILL_SLOPE 6.57, PBLUC_R_SQUARED 0.408, read-out: LUCIFERASE INFECTION ASSAY - IC50) worked out at 5.51 µM.
Regarding `O=C(NCc1ccccn1)c1ccc2nc3n(c2c1)CCC3`, the IC90 is greater than 10 µM. For the same molecule, under setting [1], the IC50 is greater than 10 µM.
Take `Cn1c(N)c(C(=O)COC(=O)c2oc3ccccc3c2CSC2CCCCC2)c(=O)n(C)c1=O`: the IC90 is greater than 10 µM. In addition, the IC50 under setting [1] is greater than 10 µM.
As to `Cc1cc2occ(CC(=O)N(c3ccc(F)cc3)c3nc4ccccc4s3)c2cc1C(C)C`, the IC90 is greater than 10 µM. Moreover, where the note is “FFLUC_HILL_SLOPE 13, FFLUC_R_SQUARED 0.172, read-out: LUCIFERASE INFECTION ASSAY - IC50”, the IC50 was greater than 10 µM.
Turning to `Cc1ccc(-n2nc(C)c(NC(=O)COc3ccc4c(=O)c(-c5ccccc5)coc4c3)c2C)cc1`, the 90% effect concentration (IC90) was found to be 3.64 µM. Under “HEPG2TOX_HILL_SLOPE 9.24, HEPG2TOX_R_SQUARED 0.0911, PBLUC_HILL_SLOPE 28.6, PBLUC_R_SQUARED 0.544, read-out: LUCIFERASE INFECTION ASSAY - IC50”, the 50% inhibitory concentration (IC50) was found to be 3.37 µM.
`O=C(Nc1ccccc1)c1ccc(C#Cc2ccccc2)o1`: the IC90 was greater than 11.5 µM. Also, the IC50 under setting [1] is greater than 11.5 µM.
In the case of `O=C(NCCO)c1cccc(-c2cn3c(-c4ccc(Cl)cc4)cnc3cn2)c1`, the concentration for an effect of 90% (IC90) was determined as 3.17 µM. Besides, the IC50 (HEPG2TOX_HILL_SLOPE 8.8, HEPG2TOX_R_SQUARED 0.456, PBLUC_HILL_SLOPE 3.73, PBLUC_R_SQUARED 0.895, read-out: LUCIFERASE INFECTION ASSAY - IC50) stood at 1.76 µM.
Regarding `Cc1ccc2nc(NC(=O)c3ccc(C#N)cc3)c(C(=O)NC3CCCC3)n2c1`, the IC90 was 0.336 µM. Further, the IC50 (FFLUC_HILL_SLOPE 93.7, FFLUC_R_SQUARED 0.282, HEPG2TOX_HILL_SLOPE 0.845, HEPG2TOX_R_SQUARED 0.968, PBLUC_HILL_SLOPE 14.4, PBLUC_R_SQUARED 0.874, read-out: LUCIFERASE INFECTION ASSAY - IC50) was determined as 0.288 µM.
